Consider one compound from patent US12486227B2, “Small molecules for cancer therapy that reduce the expression of transcription factors KLF5 and EGR-1” (University of Florida Research Foundation, Incorporated, priority 2019, dated 2025).

For data set [1], the system named is DLD-1, HCT-116, HT-29, and SW-620 colorectal cancer cell lines. Description: MTT assays for blocking growth of colorectal cancer cell lines (range over four lines). The conditions noted are these: Homo sapiens; DLD-1, HCT-116, HT-29, SW-620. Type of data set: cell-based. The text has this:
(§1) The observed activity is greater than that previously seen for ML264.
Background: Formazan colour is commonly taken as a measure of viable cells.

The next data set relates to MAPK pathway. The data set is described as follows: Western blot of MAPK signaling pathway components. Type of data set: cell-based, human. To be noted: DLD-1 and HCT116, 10 μM, 72 h. From the text: SR18662 negatively regulates MAPK and WNT signaling pathway and cyclin levels. Myriad publications have shown that in both in vitro and in vivo contexts KLF5 is regulated by MAPK and WNT signaling pathways and that KLF5, in turn, has the ability to modulate the activity of these pathways (14, 18, 26-32). We have previously shown that treatment of CRCs with ML264 results in decreased activity of both the MAPK and WNT signaling pathways (24). Because SR15006 and SRI8662 are structurally related to ML264, we decided to investigate their ability to alter the expression levels of the components of these pathways. Thus, we treated DLD-1 and HCT116 CRCs with DMSO (vehicle) and tested compounds at 1 μM or 10 μM, collecting the cells for western blot analysis at 24, 48, and 72 h. […] Similar effects were seen when both cell lines were treated these compounds at 1 μM. Furthermore, the inhibitory effects of SR18662 on the components of the MAPK signaling pathway we observed at earlier time points than were apparent following treatment with ML264 or SR15006.
Western blot analysis. Total protein was extracted from cells with Laemmli buffer and the analysis was performed as described previously (24).
For orientation: Immunoblotting shows a protein as a band on a membrane.

A further data set concerns DLD-1 colon cancer cells. The data set is described as follows: MTT viability assay, DLD-1. The conditions noted are these: Homo sapiens. Type of data set: cell-based. From the text:
Specific Examples of compounds of the present disclosure have EC50 values estimated using a cell-based assay for binding to the KLF5 promoter and, in many cases, a follow-up viability assay (MTT) using DLD-1 colon cancer cells, a cell line known to highly express KLF5 and whose growth is adversely affected by the reduction of KLF5 levels. Assay protocols follow those described in the literature.^22,23 Other assays that are not described here but that are standard in the field may also be useful in establishing mechanism of action of these compounds.

Data set [2] deals with major human CYP450 liver enzymes. The data set is described as follows: Inhibition of human CYP450 liver enzymes. Type of data set: in vitro ADME.
Data set [3] deals with HCT-116 colorectal cancer cell line. Description: MTT growth assay, HCT-116. To be noted: Homo sapiens, Table 1. Type of data set: cell-based.
Source text: as §1

Data set [4] has as its system HT-29 colorectal cancer cell line. Description: MTT growth assay, HT-29. Type of data set: cell-based. To be noted: Homo sapiens, Table 1.
Source text: as §1

Another data set deals with DLD-1-derived xenografts. The data set is described as follows: Histology, immunofluorescence and immunohistochemistry of DLD-1-derived xenografts. Type of data set: in vivo, mouse. As for the experimental part:
SR18862 inhibits the growth of CRC xenografts in vivo. To evaluate SRI8662 in an in vivo model we used CRC cells for a mouse xenograft study. As described in more detail in the Examples section, nude mice were injected with DLD-1 CRC cells. Tumors were allowed to grow to an approximate size of 100 mm^3, and then mice were injected with vehicle or with varied concentrations of SR18662, given once a day or twice a day for five days, followed by two days without injection, and then followed by five days with injections. The experiment was completed the day after the last injection. […] Significant differences in tumor size are apparent at the end of the treatment schedule (FIG. 6B). To further characterize the impact of SR18662 on the features of isolated tumors, we compared vehicle-treated mice with mice that had been treated with SR18662 twice a day. […] Because SR18662 had induced cell apoptosis and death in the in vitro setting, we stained the xenografts with PanCK and TUNEL to estimate the levels of apoptosis in the in vivo context.
Immunofluorescence and immunohistochemistry. Tumors dissected from mice were first fixed in Bouin's fixative (50% ethanol+5% acetic acid in water) for 1 h, then fixed overnight in 10% buffered formalin (Fisher Scientific). The tissues were then paraffin-embedded using an automated processor, sectioned at 5 μm, collected onto charged slides and baked in a 65° C. oven overnight, and were subsequently deparaffinized in xylene. […]
Tissue sections were first incubated with blocking buffer (5% BSA in TBS-Tween) for 30 min at 37° C. and then with primary antibody at 4° C. overnight in a humidified chamber with gentle shaking. […] Slides were analyzed under a Nikon Eclipse 90i microscope (Nikon) and representative photomicrographs were taken. […]

The next data set relates to human KLF5 promoter. The data set is described as follows: KLF5 promoter activity luciferase assay in DLD-1/pGL4.18hKLF5p cells. To be noted: Homo sapiens, DLD-1. Type of data set: cell-based. As for the experimental part:
To examine the impact of these compounds on viability of CRC cell lines, we performed cell proliferation and cell growth assays using DLD-1 and HCT116 CRC cells. […] KLF5 promoter activity assay. DLD-1/pGL4.18hKLF5p cells were seeded in 96 well plate format and treated with DMSO or with test compounds dissolved in DMSO in the range of 0.001 to 20 μM final concentration for 24 h and the human KLF5 promoter activity was determined with the ONE-Glo luciferase assay system (Promega) using a SpectramMax M3 (Molecular Devices) plate reader. The IC50 values were calculated using GraphPad Prism version 5.00 for Windows (GraphPad Software) (22).

[5] abbreviates: 25 mg/kg twice per day vs vehicle.

Read-outs that look alike come from different tables or passages of the source.

What is called IC50 is the concentration that gives 50% inhibition.

With `CS(=O)(=O)N1CCN(C(=O)CNC(=O)/C=C/c2ccc(Cl)c(Cl)c2)CC1` [Example 9, (E)-3-(3,4-dichlorophenyl)-N-(2-(4-(methylsulfonyl)piperazin-1-yl)-2-oxoethyl)acrylamide], the EC50 was 1.74 nM in data set [1]; 1.7 nM in the data set with DLD-1 colon cancer cells (MTT, Table 1, read-out: EC50 (nM) DLD-1); 1.68 nM in the data set with DLD-1 colon cancer cells (Table 2, read-out: Approximate potency (EC50 · mol/L) (DLD1, MTT assay)); 22 nM in data set [3]; 40 nM in data set [4]; 4.4 nM in the data set with human KLF5 promoter (Table 2, read-out: Approximate potency (EC50 · mol/L) (luciferase)). The “expression levels of MAPK pathway components” value with MAPK pathway is “negatively regulated the expression levels of the components of the MAPK pathway”. In addition, the “inhibition of major human CYP450 liver enzymes” value in data set [2] is recorded as “does not inhibit”. The “expression levels of KLF5 and EGR1 in xenografts” value in the data set with DLD-1-derived xenografts (25 mg/kg twice a day, immunohistochemistry) was “significantly decreased”. Besides, the “TUNEL staining in xenografts” value in the data set on DLD-1-derived xenografts (setting [5]) is “increase of TUNEL staining”. Also, in the data set with DLD-1-derived xenografts (setting [5]), the “fibrosis (PanCK/Vimentin stain) in xenografts” value was “higher level of fibrosis”. The half-maximal inhibitory concentration (IC50) in the data set on human KLF5 promoter (24 h treatment, FIG. 1B, read-out: IC50, human KLF5 promoter activity) turned out to be 4.4 nM; in the data set with human KLF5 promoter (Table 1, comparison of ML264 and SR18662, read-out: luciferase IC50), 4.4 nM.
